Data reported in patent US6407064B2, “Aminoalcohol derivative and medicament comprising the same” (Seikagaku Corporation, priority 1999, dated 2002).

How the values were obtained:
[1] = Tissue distribution: concentration in plasma and skeletal muscle after oral or intravenous administration; type: in vivo; conditions: male, Wistar, plasma, rat
Procedure: Tissue distribution of the compound in Example 19 was compared with that of L-PDMP using 6-8 week old Wistar male rats.
As oral administration, a physiological saline containing 20 mg/ml of a test substance was administered at 100 mg/5 ml/kg, and as intravenous administration, a physiological saline containing 1.25 mg/ml of a test substance was administered to the cervical vein at 5 mg/4 ml/kg.
After the predetermined time had passed since the above administration, blood was collected from the rat cervical vein, a 3.8% sodium citrate solution was added thereto at 1/10 volume, followed by centrifugation at 3,000 rpm for 15 minutes to obtain the supernatant as a plasma sample.
Also, after the predetermined time had passed since the above administration, the skeletal muscle was collected from the femoral region of both hind legs, ice water was added thereto at 4 ml/g tissue, followed by homogenization, and the same volume of acetonitrile was added thereto, followed by vigorously stirring and centrifugation at 4000 rpm for 10 minutes to obtain the supernatant as a skeletal muscle sample.
The plasma and skeletal muscle samples were extracted by OASIS HLB solid phase extraction column (manufactured by Waters), and the concentration of the test compound in the plasma and the muscle was determined by high performance liquid chromatography (HPLC). The conditions of HPLC analysis were as follows:
Detection wavelength: 218 nm
Column: DAISO PACK SP-120-5-ODS-BP
Column temperature: 40° C.
Mobile phase: 0.1% trifluoroacetic acid solution:methanol=36:64 (for L-PDMP); 0.1% trifluoroacetic acid solution:methanol=48:52 (for the compound in Example 19)
The concentrations in the plasma and skeletal muscle of the compound in Example 19 and L-PDMP after the predetermined time has been passed since the administration of the test compounds are shown in Tables 4-6 below. The values are the mean values of at least two test samples. Specifically, Table 4, Table 5, and Table 6 show the concentrations in the plasma after the oral administration of 100 mg/kg, the concentrations in the skeletal muscle after the oral administration of 100 mg/kg, and the concentrations in the plasma after the intravenous administration of 5 mg/kg, respectively.

[2] = tested on: ganglioside GM3, mouse B16 melanoma cells; test: Synthesized amount of ganglioside GM3 (HPTLC densitometry); type: cell-based; conditions: relative value, control regarded as 100, test compound 25 μM, 24 hours
Procedure: A liquid where the cells of mouse B16 melanoma were suspended was prepared with Dulbecco modified Eagle's medium containing 10% bovine fetal serum, inoculated into a culture flask (175 cm^2) in an amount of 0.8×10^7 cells/20 ml, and cultured in 5% CO2 incubator at 37° C. The treatment with a test compound (25 μM) was started through the exchange of three fourths of the medium 24 hours after the culture was started. Twenty-four hours after the treatment with the test compound was started, the culture mixture was treated with PBS containing 0.02% EDTA and PBS containing 0.25% trypsin successively to recover the cells.
Then, a mixed solvent of chloroform:methanol=2:1 (4 ml) was added to the cell pellet and, after the subjection to an ultrasonication for 30 minutes, the cell pellet solution was allowed to stand at room temperature for a night and the supernatant was recovered. Furthermore, a mixed solvent of chloroform:methanol=1:1 (4 ml) was added to the residual pellet after the recovery of the supernatant, and a similar operation was carried out. The resulting supernatant was combined with the first supernatant and the whole was evaporated to dryness under a nitrogen stream. To the total lipid fraction was added a 0.1 N methanolic sodium hydroxide solution (2.0 ml) and the mixture was allowed to stand at 40° C. for 2 hours. Thereafter, 1 N hydrochloric acid (0.2 ml) was added thereto and the mixture was allowed to stand for 1.5 hours.
Then, the mixture was washed with n-hexane (2 ml×2) and, after the lower layer thus washed was evaporated to dryness under a nitrogen stream, the residue was desalinated by gel filtration chromatography (Sephadex LH-20 (manufactured by Amersham Pharmacia Biotech), diameter of 10 mm, height of 120 mm) using chloroform:methanol=2:1 as the eluting solvent. […] After orcinol-sulfuric acid reagent had been sprayed on the plate, it was heated at 110° C. for 5 minutes and colored spot of ganglioside GM3 was quantitatively determined by means of densitometer (a measuring wavelength of 505 nm). […]

neurite = conditions: literature; cited from earlier work
neurocytes = conditions: J. Neurochem. 67: 1821-1830, 1996; cited from earlier work

concentration at 10 min ([1]; intravenous administration of 5 mg/kg, 10 min): 1030 ng/mL
concentration at 25 min ([1]; intravenous administration of 5 mg/kg, 25 min): 620 ng/mL
concentration at 5 min ([1]; oral administration of 100 mg/kg, 5 min): 10 ng/mL
concentration at 15 min ([1]; oral administration of 100 mg/kg, 15 min): 1360 ng/mL
concentration at 30 min ([1]; oral administration of 100 mg/kg, 30 min): 2100 ng/mL
concentration at 60 min ([1]; oral administration of 100 mg/kg, 60 min): 1440 ng/mL
Structure (SMILES): CCCCCCCCCC(=O)N[C@@H](CN1CCOCC1)[C@@H](O)c1ccccc1 [L-PDMP, (1S,2S)-1-phenyl-2-decanoylamino-3-morpholino-1-propanol, reference compound]
Glycolipid content (Test Example 3) [2]: 100.7
effect on neurite extension (neurite): effect of accelerating neurite extension
effect on ganglioside biosynthesis of neurocytes (neurocytes): accelerate ganglioside biosynthesis of neurocytes
